Test results reported in ChEMBL document CHEMBL1201862, “PubChem BioAssay data set” (2004).
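Assay format: 96-well plates, 48-hour exposure. Abbreviation: GI50, concentration required for 50% inhibition of growth.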 Calls of active or inactive are those of the source. Rule as the data show it: active = GI50 up to about 1.1 µM and inactive = higher.

Legend:
Assay in all cases: DTP human tumour cell line panel, 48 h
SF-539 = system: SF-539
LOX IMVI = system: LOX IMVI
MOLT-4 = system: MOLT-4
UACC-62 = system: UACC-62
M14 = system: M14
SK-OV-3 = system: SK-OV-3
Malme-3M = system: Malme-3M
HL-60 = system: HL-60
SK-MEL-5 = system: SK-MEL-5
IGROV-1 = system: IGROV-1
MCF7 = system: MCF7
OVCAR-5 = system: OVCAR-5
RXF 393 = system: RXF 393
NCI/ADR-RES = system: NCI/ADR-RES
786-0 = system: 786-0
ACHN = system: ACHN
OVCAR-4 = system: OVCAR-4
MDA-MB-231 = system: MDA-MB-231
HCT-15 = system: HCT-15
HCC 2998 = system: HCC 2998

SMILES	GI50 (SF-539)	GI50 (LOX IMVI)	GI50 (MOLT-4)	GI50 (UACC-62)	GI50 (M14)	GI50 (SK-OV-3)	GI50 (Malme-3M)	GI50 (HL-60)	GI50 (SK-MEL-5)	GI50 (IGROV-1)	GI50 (MCF7)	GI50 (OVCAR-5)	GI50 (RXF 393)	GI50 (NCI/ADR-RES)	GI50 (786-0)	GI50 (ACHN)	GI50 (OVCAR-4)	GI50 (MDA-MB-231)	GI50 (HCT-15)	GI50 (HCC 2998)
O=C(N/C(=C/c1ccc(Cl)cc1Cl)c1nc2ccccc2s1)c1ccccc1	15.5 µM (inactive)	5.32 µM (inactive)	14.3 µM (inactive)	16.6 µM (inactive)	17.7 µM (inactive)	24.3 µM (inactive)	16.4 µM (inactive)	32.4 µM (inactive)	13.5 µM (inactive)	11.1 µM (inactive)	16.2 µM (inactive)	17.3 µM (inactive)	31 µM (inactive)	15.6 µM (inactive)	12.9 µM (inactive)	6.56 µM (inactive)	15.5 µM (inactive)	10.3 µM (inactive)	4.37 µM	
Clc1ccc(Nc2nnc(CNc3ccc(-c4nnc(Nc5ccc(Cl)cc5)s4)cc3)s2)cc1			19 µM (inactive)	21.2 µM (inactive)	22.8 µM (inactive)	47.3 µM (inactive)	52.5 µM (inactive)		24.9 µM (inactive)	41.2 µM (inactive)	17.9 µM (inactive)	23.6 µM (inactive)	35.8 µM (inactive)	48.4 µM (inactive)	24.2 µM (inactive)	20.2 µM (inactive)	27.5 µM (inactive)	25.8 µM (inactive)	25.1 µM	13.4 µM (inactive)
COc1ccc(P2(=S)Oc3ccccc3-c3ccccc3O2)cc1	0.266 µM (active)	0.661 µM (active)	0.437 µM (active)	0.733 µM (active)	0.574 µM (active)		0.438 µM (active)	0.284 µM (active)	0.365 µM (active)	0.394 µM (active)	0.377 µM (active)	> 100 µM (inactive)		0.902 µM (active)	0.531 µM (active)	0.728 µM (active)	4.25 µM (inactive)	0.439 µM (active)	0.48 µM	0.443 µM (active)
CC(Br)CN(CC(C)Br)c1ccc2c(c1)Cc1ccccc1-2 (stereo not given)		8.11 µM (inactive)	2.34 µM (inactive)	11.9 µM (inactive)	11.6 µM (inactive)	16 µM (inactive)	11.7 µM (inactive)	1.73 µM (inactive)	12.7 µM (inactive)	6.93 µM (inactive)	6.49 µM (inactive)	18.9 µM (inactive)	14.3 µM (inactive)	13.5 µM (inactive)	11.1 µM (inactive)	6.64 µM (inactive)	13.1 µM (inactive)	13.9 µM (inactive)	13.1 µM	
O=C(Nc1nnc(-c2ccccc2)o1)C(SC(=S)N1CCCC1)c1ccccc1 (stereo not given)	34.2 µM (inactive)	14.1 µM (inactive)	5 µM (inactive)		23.6 µM (inactive)	36.8 µM (inactive)	45 µM (inactive)	19.9 µM (inactive)	17.8 µM (inactive)	22.9 µM (inactive)	31.3 µM (inactive)	36.4 µM (inactive)	40.3 µM (inactive)	6.67 µM (inactive)	26.4 µM (inactive)	26.2 µM (inactive)	38.7 µM (inactive)	39 µM (inactive)	6.9 µM	
CNC(=O)CCNC(=O)CCC(=O)OC	> 100 µM (inactive)		> 100 µM (inactive)	> 100 µM (inactive)	> 100 µM (inactive)	> 100 µM (inactive)			> 100 µM (inactive)		> 100 µM (inactive)	> 100 µM (inactive)	> 100 µM (inactive)	> 100 µM (inactive)	> 100 µM (inactive)	> 100 µM (inactive)	> 100 µM (inactive)	> 100 µM (inactive)		
CN[C@@H](C)[C@H](OP(=O)(O)OC1[C@@H](O)[C@H](O)C(O)[C@H](O)[C@@H]1O)c1ccccc1 (stereo not given in full)	16.3 µM (inactive)		> 100 µM (inactive)	> 100 µM (inactive)	> 100 µM (inactive)	> 100 µM (inactive)	> 100 µM (inactive)	> 100 µM (inactive)	> 100 µM (inactive)	> 100 µM (inactive)	> 100 µM (inactive)	> 100 µM (inactive)		> 100 µM (inactive)	> 100 µM (inactive)	> 100 µM (inactive)	> 100 µM (inactive)	> 100 µM (inactive)	> 100 µM	> 100 µM (inactive)
Nc1nc(N)c(C2=CCN(Cc3ccccc3)CC2)c(=O)[nH]1	> 100 µM (inactive)		> 100 µM (inactive)	> 100 µM (inactive)	> 100 µM (inactive)	> 100 µM (inactive)	> 100 µM (inactive)	> 100 µM (inactive)	> 100 µM (inactive)	> 100 µM (inactive)	> 100 µM (inactive)	> 100 µM (inactive)	> 100 µM (inactive)	> 100 µM (inactive)	> 100 µM (inactive)	> 100 µM (inactive)	> 100 µM (inactive)	> 100 µM (inactive)	> 100 µM	
